Data: ChEMBL document CHEMBL1201862, “PubChem BioAssay data set” (2004)
Active and inactive are the calls of the source.

Assays:
[1] = target: T1, Carboxy-terminal domain RNA polymerase II polypeptide A small phosphatase 1 (Homo sapiens, UniProt Q9GZU7); assay: inhibitors of CTDSP1, concentration-response testing, biochemical assay, absorbance-based, actives from ultra-high-throughput screening (AID 540297); format: functional
T1 sequence (Q9GZU7 whole entry): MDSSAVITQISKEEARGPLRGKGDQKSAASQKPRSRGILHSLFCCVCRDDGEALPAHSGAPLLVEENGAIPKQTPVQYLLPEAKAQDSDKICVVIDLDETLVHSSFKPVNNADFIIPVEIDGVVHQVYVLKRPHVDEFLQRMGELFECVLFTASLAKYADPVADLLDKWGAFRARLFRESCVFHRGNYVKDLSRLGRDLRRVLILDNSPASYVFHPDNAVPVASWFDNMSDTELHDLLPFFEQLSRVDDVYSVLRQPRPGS

Fatty acid synthase [2] = target: T2, Fatty acid synthase (Homo sapiens, UniProt P49327); assay: FAS thioesterase domain inhibitors, dose response, biochemical, kinetic fluorescence intensity (AID 624326); format: functional;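 note: rate of fluorescence rise from hydrolysis of a fluorogenic O-methyl fluorescein ester substrate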
Fatty acid synthase [3] = target: T2, Fatty acid synthase; assay: FAS thioesterase domain inhibitors, dose response, biochemical, endpoint fluorescence intensity, uHTS hits (AID 624327); format: functional;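 note: fluorescence from hydrolysis of an O-methyl fluorescein acyl ester substrate by the enzyme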
[4] = target: T3, High affinity choline transporter 1 (Homo sapiens, UniProt Q9GZV3); assay: CHT inhibitors, dose response, cell-based, 5-point CRC, membrane potential dye (AID 504840); format: functional
T3 sequence (Q9GZV3 whole entry): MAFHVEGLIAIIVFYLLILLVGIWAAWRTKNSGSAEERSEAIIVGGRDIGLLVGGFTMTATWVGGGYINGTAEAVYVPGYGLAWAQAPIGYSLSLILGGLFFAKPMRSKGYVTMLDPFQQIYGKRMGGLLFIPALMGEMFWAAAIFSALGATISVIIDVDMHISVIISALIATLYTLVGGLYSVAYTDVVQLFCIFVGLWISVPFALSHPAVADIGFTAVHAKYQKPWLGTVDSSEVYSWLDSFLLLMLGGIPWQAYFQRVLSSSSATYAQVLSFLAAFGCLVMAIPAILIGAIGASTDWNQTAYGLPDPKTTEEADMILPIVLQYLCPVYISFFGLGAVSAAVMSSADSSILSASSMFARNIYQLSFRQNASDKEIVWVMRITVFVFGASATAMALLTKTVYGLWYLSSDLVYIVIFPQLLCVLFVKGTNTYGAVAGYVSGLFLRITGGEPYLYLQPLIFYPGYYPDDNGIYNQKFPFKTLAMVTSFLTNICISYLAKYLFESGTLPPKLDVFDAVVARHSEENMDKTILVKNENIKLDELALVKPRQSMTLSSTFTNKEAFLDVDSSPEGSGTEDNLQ

H4 = assay: Luminescence Cell-Based Dose Response HTS to Identify Activators of 5'UTR Stem-Loop Driven Prion Protein mRNA Translation in H4 Neuroglioblastoma Cells. [Related pubchem assays: 1829 (Project Summary), 1814 (Primary HTS)]; format: functional; conditions: Homo sapiens
[5] = Luminescence Cell-Based Dose Response HTS to Identify Activators of Luciferase Translation or Activity in H4 […] Cells. [Related pubchem assays: 1829 (Project Summary), 1814 (Primary HTS)]; format: functional
[6] = Luminescence Cell-Based Dose Confirmation HTS to Identify Activators of 5'UTR Stem-Loop Driven Alpha-Synuclein mRNA Translation in H4 Neuroglioblastoma Cells. [Related pubchem assays: 1829 (Project Summary), 1814 (Primary HTS)]; format: functional
cells [7] = format: functional, cell-based
cells [8] = format: functional, cell-based; remark: listed apart in the source
Paired box protein Pax-8 = Paired box protein Pax-8 (Homo sapiens, UniProt Q06710); assay: inhibitors of PAX8-driven TPO luciferase reporter, dose response, RMG-I cells, cherry-pick (AID 687027); format: functional, cell-based;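 note: luciferase reporter driven by Pax8 target thyroperoxidase promoter measured by SteadyGlo luminescence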
[9] = cytotoxicity in OVCAR8 ovarian cancer cells, dose response, PAX8 project, cell-based, plate reader, dry powder samples (AID 743197); format: functional; conditions: OVCAR-8
H9c2 = assay: cells; format: functional, cell-based; conditions: Rattus norvegicus, H9c2, Myocardium
[10] = THP-1 cell cytotoxicity, dose response, cytotoxicity control for non-replicating M. tuberculosis project (AID 489025); format: functional
cells [11] = format: functional

T2 sequence (P49327 whole entry, the tested form may be a part): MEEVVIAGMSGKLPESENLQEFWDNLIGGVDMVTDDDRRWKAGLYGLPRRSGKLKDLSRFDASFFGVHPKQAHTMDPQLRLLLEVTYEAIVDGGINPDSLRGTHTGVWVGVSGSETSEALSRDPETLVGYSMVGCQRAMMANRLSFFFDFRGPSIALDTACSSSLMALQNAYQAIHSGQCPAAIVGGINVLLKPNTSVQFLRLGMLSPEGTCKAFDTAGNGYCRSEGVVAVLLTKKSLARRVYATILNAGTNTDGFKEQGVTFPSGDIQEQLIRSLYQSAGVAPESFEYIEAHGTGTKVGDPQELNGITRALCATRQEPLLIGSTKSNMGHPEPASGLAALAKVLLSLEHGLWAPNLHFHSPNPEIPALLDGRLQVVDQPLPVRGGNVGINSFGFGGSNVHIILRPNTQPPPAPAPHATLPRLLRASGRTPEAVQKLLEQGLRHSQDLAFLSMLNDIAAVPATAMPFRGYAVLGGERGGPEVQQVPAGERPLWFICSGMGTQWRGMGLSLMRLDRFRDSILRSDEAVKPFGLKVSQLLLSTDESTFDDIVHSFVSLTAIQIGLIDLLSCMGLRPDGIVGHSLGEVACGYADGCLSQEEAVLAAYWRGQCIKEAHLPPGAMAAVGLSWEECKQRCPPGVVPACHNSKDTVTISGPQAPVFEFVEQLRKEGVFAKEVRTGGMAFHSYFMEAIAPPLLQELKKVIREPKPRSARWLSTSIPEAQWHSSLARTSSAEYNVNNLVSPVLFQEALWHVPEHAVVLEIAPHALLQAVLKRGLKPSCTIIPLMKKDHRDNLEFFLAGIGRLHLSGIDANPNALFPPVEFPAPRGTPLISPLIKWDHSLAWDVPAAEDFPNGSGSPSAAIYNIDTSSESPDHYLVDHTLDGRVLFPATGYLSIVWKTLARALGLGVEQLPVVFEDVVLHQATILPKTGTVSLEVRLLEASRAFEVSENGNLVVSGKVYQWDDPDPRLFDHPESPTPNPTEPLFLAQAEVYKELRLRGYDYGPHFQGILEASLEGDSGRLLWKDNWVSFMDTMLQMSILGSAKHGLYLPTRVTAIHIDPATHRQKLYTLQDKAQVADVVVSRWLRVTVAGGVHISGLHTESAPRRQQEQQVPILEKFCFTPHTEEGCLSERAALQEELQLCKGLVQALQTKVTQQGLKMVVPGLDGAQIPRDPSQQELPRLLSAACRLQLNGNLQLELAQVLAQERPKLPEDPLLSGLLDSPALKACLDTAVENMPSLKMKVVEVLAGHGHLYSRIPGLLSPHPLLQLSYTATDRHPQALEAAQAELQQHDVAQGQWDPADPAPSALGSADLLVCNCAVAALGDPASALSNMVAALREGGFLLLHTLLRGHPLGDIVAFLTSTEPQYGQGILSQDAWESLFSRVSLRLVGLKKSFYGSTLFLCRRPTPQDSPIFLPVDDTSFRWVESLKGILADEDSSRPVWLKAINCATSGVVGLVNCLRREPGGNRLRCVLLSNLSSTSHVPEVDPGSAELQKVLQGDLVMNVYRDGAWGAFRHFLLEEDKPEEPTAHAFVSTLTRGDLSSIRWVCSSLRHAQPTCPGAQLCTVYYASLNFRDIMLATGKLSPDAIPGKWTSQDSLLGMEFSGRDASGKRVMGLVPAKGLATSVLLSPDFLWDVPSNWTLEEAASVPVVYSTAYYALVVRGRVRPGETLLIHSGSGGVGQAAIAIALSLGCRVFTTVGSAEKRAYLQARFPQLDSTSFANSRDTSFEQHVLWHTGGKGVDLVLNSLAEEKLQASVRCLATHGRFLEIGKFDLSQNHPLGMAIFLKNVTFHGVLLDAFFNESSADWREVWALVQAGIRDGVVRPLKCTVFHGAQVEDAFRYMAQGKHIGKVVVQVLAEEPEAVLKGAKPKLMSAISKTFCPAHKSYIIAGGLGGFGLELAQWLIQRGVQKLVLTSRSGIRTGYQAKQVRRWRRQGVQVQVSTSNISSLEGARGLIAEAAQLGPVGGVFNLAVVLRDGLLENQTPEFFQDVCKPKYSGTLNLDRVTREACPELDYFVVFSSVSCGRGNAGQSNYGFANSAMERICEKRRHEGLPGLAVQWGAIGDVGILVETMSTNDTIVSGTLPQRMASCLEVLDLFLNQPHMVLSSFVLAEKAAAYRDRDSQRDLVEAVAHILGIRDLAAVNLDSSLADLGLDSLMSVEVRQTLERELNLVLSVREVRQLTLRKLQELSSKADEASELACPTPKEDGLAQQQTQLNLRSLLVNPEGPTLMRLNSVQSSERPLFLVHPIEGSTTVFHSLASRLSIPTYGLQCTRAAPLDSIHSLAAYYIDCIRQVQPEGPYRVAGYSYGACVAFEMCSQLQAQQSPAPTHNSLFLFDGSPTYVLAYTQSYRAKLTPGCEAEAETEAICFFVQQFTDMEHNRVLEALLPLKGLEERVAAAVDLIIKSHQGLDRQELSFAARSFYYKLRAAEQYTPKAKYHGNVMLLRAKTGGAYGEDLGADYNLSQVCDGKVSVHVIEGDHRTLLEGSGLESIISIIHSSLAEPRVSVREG
Paired box protein Pax-8, sequence (Q06710 whole entry): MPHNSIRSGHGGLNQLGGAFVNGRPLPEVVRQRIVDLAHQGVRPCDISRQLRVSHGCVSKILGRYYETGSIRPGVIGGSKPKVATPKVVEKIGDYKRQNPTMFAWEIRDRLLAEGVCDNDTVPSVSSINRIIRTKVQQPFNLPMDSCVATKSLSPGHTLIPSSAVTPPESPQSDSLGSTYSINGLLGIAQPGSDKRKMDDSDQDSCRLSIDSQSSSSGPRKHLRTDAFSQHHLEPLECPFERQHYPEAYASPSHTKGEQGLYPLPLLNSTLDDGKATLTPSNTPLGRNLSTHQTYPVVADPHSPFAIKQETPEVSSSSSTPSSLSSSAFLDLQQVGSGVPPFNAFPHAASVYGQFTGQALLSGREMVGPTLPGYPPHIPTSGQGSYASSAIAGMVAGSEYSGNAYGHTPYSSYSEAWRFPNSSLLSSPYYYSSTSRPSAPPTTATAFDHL

## O=C(CSc1nnc(COc2ccccc2)n1Cc1ccco1)NCc1ccco1
[1]
  IC50: 7.21 µM (active)

## Cc1cc(C)c(C#N)c(SC[S+]([O-])Cc2ccc(Cl)cc2)n1 (stereo not given)
Fatty acid synthase [2]
  IC50: 5.54 µM (active)
Fatty acid synthase [3]
  IC50: 5.88 µM (active)

## O=C(CSc1ccc([N+](=O)[O-])cc1)NCC1CCCCC1
Fatty acid synthase [2]
  IC50: 11.9 µM (active)
Fatty acid synthase [3]
  IC50: 8.2 µM (active)

## CC(/C=C1\SC(=S)N(NC(=O)c2ccncc2)C1=O)=C\c1ccccc1
[4]
  IC50: 14.5 µM (active)

## CC(C)c1ccc(N(C(=O)c2csnn2)C(C(=O)NC(C)(C)C)c2ccncc2)cc1 (stereo not given)
H4
  EC50: 22.6 µM (inconclusive)
[5]
  EC50: > 120 µM (not active)
[6]
  EC50: 5.54 µM (active)

## Cc1ccc(-c2csc(C3=C(N)N(NC(=O)c4ccco4)CC3=O)n2)cc1
[1]
  IC50: 12.9 µM (active)

## OCCC#Cc1ccc(CN2CCN(Cc3ccccc3)C(CCO)C2)cc1 (stereo not given)
Cells [7]
  EC50: > 350 µM (not active)
Cells [8]
  EC50: > 350 µM (not active)

## CN1c2ccc(C3=CCCCC3)cc2[C@H]2[C@H](CCN2C(=O)NC2CCCCC2)[C@@H]1CO
Paired box protein Pax-8
  AC50: 12.3 µM (active)
[9]
  AC50: > 70 µM (inactive)

## CCS(=O)(=O)C1=NN2C(=N)/C(=C\c3ccc(OS(=O)(=O)c4ccccc4)cc3)C(=O)N=C2S1
[4]
  IC50: 6.95 µM (active)

## O=C(O)/C=C\C(=O)Nc1ccccc1C#Cc1ccc(Br)cc1
H4
  EC50: 7.95 µM (active)
[5]
  EC50: 19.7 µM (active)
[6]
  EC50: 114 µM (active)

## O=C(Nc1ccc(NC(=O)C2CC2)nc1)c1cccc(F)c1
H4
  EC50: > 120 µM (not active)
[5]
  EC50: 11.2 µM (active)
[6]
  EC50: 13.1 µM (active)

## Cc1ccc(C(=O)N/N=C\c2ccc(-c3ccc(Cl)cc3)o2)cn1
H9c2
  IC50: > 79 µM (inactive)
[10]
  CC50: 30 µM (active)
Cells [11]
  IC50: > 50 µM (active)

## CCC(Oc1ccc2c(c1)C(=O)CC(C)(C)O2)C(=O)NCCN1CCCCCC1 (stereo not given)
[4]
  IC50: 15.8 µM (active)

## O/N=C1/C2C3CC4C5C3C1C5C1(OCCO1)C42 (stereo not given)
Cells [7]
  EC50: > 350 µM (not active)
Cells [8]
  EC50: > 350 µM (not active)

## COc1ccc(NC(=O)CCS(=O)(=O)c2ccc3c(c2)CCN3C(C)=O)cc1
Cells [7]
  EC50: > 350 µM (not active)
Cells [8]
  EC50: > 350 µM (not active)

## CC1CCN(Cc2nc(-c3ccccc3)no2)CC1
H4
  EC50: 25.8 µM (active)
[5]
  EC50: < 0.1 µM (active)
[6]
  EC50: 0.272 µM (active)

## Nc1c(C(=O)OC2CCCCC2)c2nc3ccccc3nc2n1CC1CCCO1 (stereo not given)
[4]
  IC50: 13.2 µM (active)

## Cc1ccc(NC(=O)CCNC(=O)c2ccc([N+](=O)[O-])cc2)cc1C
Fatty acid synthase [2]
  IC50: 9.29 µM (active)
Fatty acid synthase [3]
  IC50: 9.54 µM (active)
